# Measurements taken from the RepoRT retention time repository.
# Assay: RP, Waters ACQUITY UPLC BEH C18, 50 × 2.1 mm, 1.7 µm, 55 °C, 0.4 mL/min, estimated dead time 0.28 min; A: 40% water + 60% acetonitrile + 0.1% acetic acid + 10 mM ammonium acetate; B: 10% acetonitrile + 90% isopropanol + 0.1% acetic acid + 10 mM ammonium acetate; gradient (min/%B) 0/40 2/43 2.1/50 12/54 12.1/70 18/99 19/99
# Conditions: stereoisomer not certain
row,Compound,LC retention time
1,CC12CCC3C(CCC4CC(OS(=O)(=O)O)CCC43C)C1CCC2=O (stereo not drawn),1 min
2,CCCCCCCCCCCCC(O)C(=O)O (stereo not drawn) [2-hydroxymyristic acid],0.92 min
3,CCCCCCCCCCCCCCCC(=O)OCC(O)COP(=O)([O-])OCC[N+](C)(C)C (stereo not drawn) [LPC(16:0/0:0)],1.35 min
4,CCCCCC=CCC=CCCCCCCCC(=O)OC(COC(=O)CCCCCCCCCCCCCCC)COP(=O)([O-])OCC[N+](C)(C)C (stereo not drawn) [PC(16:0/18:2)],7 min
5,CCCCCC=CCC=CCC=CCC=CCCCC(=O)OC(COCCCCCCCCCCCCCCCC)COP(=O)([O-])OCC[N+](C)(C)C (stereo not drawn) [PC(O-16:0/20:4)],8 min

# Next, values leading:
row,LC retention time,Compound
1,6 min,CCCCCCCCC=CCCCCCCCC(=O)OC(COC(=O)CCCCCCCCCCCCCCC)COP(=O)(O)OC1C(O)C(O)C(O)C(O)C1O (stereo not drawn) [PI(16:0/18:1)]
2,2 min,CCCCCC=CCC=CCC=CCC=CCCCC(=O)O [arachidonic acid]
3,1 min,CC(CCC(=O)O)C1CCC2C3C(O)CC4CC(O)CCC4(C)C3CC(O)C12C (stereo not drawn) [cholic acid]
4,1 min,CCCCCC/C=C\CCCC(=O)O [cis-5-dodecenoic acid]
5,4 min,CCCCCCCC/C=C\CCCCCCCCCCCC(=O)O [cis-13-docosenoic acid]
6,1 min,CCCCCCCCCCCC(=O)O [lauric acid]
7,2 min,CCCCC/C=C\C/C=C\CCCCCCCC(=O)O [linoleic acid]
8,1 min,C=CCCCCCCCCC(=O)O [undecylenic acid]
